Experimental findings from ChEMBL document CHEMBL3045759, “Synthesis of a New 1, 2, 4-Oxadiazol-5-one Derivative, KC10017, and Its Controlling Activity against Rice Blast Disease Caused by Magnaporthe grisea” (J Pestic Sci, 2002) are described below.

Series [1] deals with Pyricularia grisea. As to the kind of experiment: microbe, parasite or virus in culture. Type of series: functional. The conditions noted are these: P-2.
The subject of series [2] is Pyricularia grisea. As to the kind of experiment: microbe, parasite or virus in culture. Type of series: functional. The conditions noted are these: P-2. This is another data set of the same source.
Series [3] concerns Pyricularia grisea. As to the kind of experiment: microbe, parasite or virus in culture. It counts as functional. The conditions noted are these: P-2. This is another data set of the same source.
The subject of series [4] is Pyricularia grisea. As to the kind of experiment: microbe, parasite or virus in culture. Type of series: functional. Particulars: P-2. This is another data set of the same source.
In another series the test system is Rhizoctonia solani. The experiment in a line: Fungicidal activity against Rhizoctonia solani assessed as control of rice sheath blight disease at 50 ug/ml. Type of series: functional, organism-based.
A further series has as its system Botrytis cinerea. The experiment in a line: Fungicidal activity against Botryotinia fuckeliana assessed as control of cucumber gray mold disease at 50 ug/ml. It counts as functional, organism-based.
Series [5] has as its system Pyricularia grisea. As to the kind of experiment: Fungicidal activity against Magnaporthe grisea P-2 in rice plant assessed as control of rice blast disease at 0.5 ug/ml at 26 +/- 2 degC measured after 5 days. It counts as functional, organism-based.
The next series has as its system Phytophthora infestans. As to the kind of experiment: Fungicidal activity against Phytophthora infestans assessed as control of tomato late blight disease at 50 ug/ml. It counts as functional, organism-based.
For series [6], the system named is Pyricularia grisea. The experiment in a line: Fungicidal activity against Magnaporthe grisea P-2 in rice plant assessed as control of rice blast disease at 100 ug/ml measured after 14 days of treatment at 26 +/- 2 degC measured afterr 5 days. Type of series: functional, organism-based.
Series [7] can be described thus: Lipophilicity, log P of the compound. It counts as physicochemical. The conditions noted are these: octanol/water.
The next series relates to Blumeria hordei. The experiment in a line: Fungicidal activity against Blumeria graminis f. sp. hordei assessed as control of barley powdery mildew at 50 ug/ml. Type of series: functional, organism-based.
Series [8] deals with Pyricularia grisea. As to the kind of experiment: Fungicidal activity against Magnaporthe grisea P-2 in rice plant assessed as control of rice blast disease at 50 ug/ml. Type of series: functional, organism-based.
Series [9] relates to Pyricularia grisea. As to the kind of experiment: Inhibition of mycelial growth of Magnaporthe grisea P-2 assessed as mycelial dry weight at 0.1 to 100 ug/ml at 25 degC. Type of series: functional, organism-based.
In the next series the test system is Puccinia triticina. As to the kind of experiment: Fungicidal activity against Puccinia triticina assessed as control of wheat leaf rust disease at 50 ug/ml. Type of series: functional, organism-based.

Activity calls are given as the source filed them. The rule behind the calls is not given here.

Usually inhibition stands for the drop in the measured response relative to a control, in per cent. As for `Cc1cccc2sc3nncn3c12` [TRICYCLAZOLE], the values for the inhibition at 1 µg/mL in the series on Pyricularia grisea [1] and with Pyricularia grisea [4] were 0% and 3.8%, respectively. For the same compound, the inhibition at 10 µg/mL in the series with Pyricularia grisea [2] was 0%; in the series with Pyricularia grisea [3], 7.2%.

Consider `CN(CC[C@H](N)CC(=O)N[C@H]1C=C[C@H](n2ccc(N)nc2=O)O[C@@H]1C(=O)O)C(=N)N` [BLASTICIDIN_S], for which the results for the inhibition at 1 µg/mL in the series on Pyricularia grisea [1] and in the series with Pyricularia grisea [4] were 25.2% and 76.6%, respectively. This compound yielded an inhibition at 10 µg/mL with Pyricularia grisea [3] of 100%.

As a reminder, the logP is the decadic logarithm of the partition coefficient of the neutral form, usually between octanol and water. Read a low logP as lower lipophilicity. As to `Cc1cccc(NC(=O)Cn2c(COc3c(C)cc(Br)cc3C)noc2=O)c1`, the figures for the inhibition at 1 µg/mL with Pyricularia grisea [1] and in the series with Pyricularia grisea [4] were 0% and 2.9%, respectively. In addition, the outcome in the series on Rhizoctonia solani, in the series with Botrytis cinerea, with Phytophthora infestans, with Blumeria hordei and with Puccinia triticina was inactive. Moreover, the inhibition at 10 µg/mL in the series on Pyricularia grisea [2] and in the series with Pyricularia grisea [3] was 0% each time. In addition, the result with Pyricularia grisea [5], in the series with Pyricularia grisea [6] and with Pyricularia grisea [8] was Active. For the same compound, the logP in series [7] was 6.01. Further, the inhibition entry in the series with Pyricularia grisea [9] was “inactive”.

For the compound `CCOP(=O)(Sc1ccccc1)Sc1ccccc1` [EDIFENPHOS], the inhibition at 1 µg/mL came out at 44.8% in the series on Pyricularia grisea [1] and 76.4% with Pyricularia grisea [4]. In addition, in the series with Pyricularia grisea [3], the inhibition at 10 µg/mL came out at 100%.
